From the kinase profiling compilation of Christmann-Franck et al. (2016)

Assays:
NLK (human) = NLK (human) (UniProt Q9UBE8); experiment: KINOMEscan competition binding; settings: compound 10.0 µM
STK10 (human) = STK10 (human) (UniProt O94804); experiment: KINOMEscan competition binding; settings: compound 10.0 µM
[1] = biological target: JAK2 JH1 catalytic (human) (UniProt O60674); experiment: KINOMEscan competition binding; settings: compound 10.0 µM
FLT3 (human) = FLT3 (human) (UniProt P36888); experiment: KINOMEscan competition binding; settings: compound 10.0 µM
MLTK (human) = MLTK (human) (UniProt Q9NYL2); experiment: KINOMEscan competition binding; settings: compound 10.0 µM
[2] = system: FGFR3 (human), P22607 [G697C]; experiment: KINOMEscan competition binding; settings: compound 10.0 µM
CAMKK2 (human) [3] = biological target: CAMKK2 (human) (UniProt Q96RR4); experiment: KINOMEscan competition binding; settings: compound 10.0 µM
PTK2B (human) = PTK2B (human) (UniProt Q14289); experiment: KINOMEscan competition binding; settings: compound 10.0 µM
LTK (human) = LTK (human) (UniProt P29376); experiment: KINOMEscan competition binding; settings: compound 10.0 µM
[4] = system: FLT3 (human), P36888 [K663Q]; experiment: KINOMEscan competition binding; settings: compound 10.0 µM
KIT (human) = KIT (human) (UniProt P10721); experiment: KINOMEscan competition binding; settings: compound 10.0 µM
MAPK11 (human) = MAPK11 (human) (UniProt Q15759); experiment: KINOMEscan competition binding; settings: compound 10.0 µM
MAP3K3 (human) = MAP3K3 (human) (UniProt Q99759); experiment: KINOMEscan competition binding; settings: compound 10.0 µM
MAP4K4 (human) = MAP4K4 (human) (UniProt O95819); experiment: KINOMEscan competition binding; settings: compound 10.0 µM
STK38L (human) = STK38L (human) (UniProt Q9Y2H1); experiment: KINOMEscan competition binding; settings: compound 10.0 µM
FGFR1 (human) = FGFR1 (human) (UniProt P11362); experiment: KINOMEscan competition binding; settings: compound 10.0 µM
[5] = system: RET (human), P07949 [V804L]; experiment: KINOMEscan competition binding; settings: compound 10.0 µM
FGFR2 (human) = FGFR2 (human) (UniProt P21802); experiment: KINOMEscan competition binding; settings: compound 10.0 µM
STK36 (human) = STK36 (human) (UniProt Q9NRP7); experiment: KINOMEscan competition binding; settings: compound 10.0 µM
[6] = biological target: JAK3 JH1 catalytic (human) (UniProt P52333); experiment: KINOMEscan competition binding; settings: compound 10.0 µM
[7] = system: KIT (human), P10721 [V559D/V654A]; experiment: KINOMEscan competition binding; settings: compound 10.0 µM
SLK (human) = SLK (human) (UniProt Q9H2G2); experiment: KINOMEscan competition binding; settings: compound 10.0 µM
NEK2 (human) = NEK2 (human) (UniProt P51955); experiment: radiometric filter-binding kinase assay
TBK1 (human) = TBK1 (human) (UniProt Q9UHD2); experiment: radiometric filter-binding kinase assay
DYRK1A (human) = DYRK1A (human) (UniProt Q13627); experiment: radiometric filter-binding kinase assay
CAMKK2 (human) [8] = biological target: CAMKK2 (human) (UniProt Q96RR4); experiment: radiometric filter-binding kinase assay
EEF2K (human) = EEF2K (human) (UniProt O00418); experiment: radiometric filter-binding kinase assay
MAP2K1 (human) = MAP2K1 (human) (UniProt Q02750); experiment: radiometric filter-binding kinase assay
MAPKAPK2 (human) = MAPKAPK2 (human) (UniProt P49137); experiment: radiometric filter-binding kinase assay
PKN2 (human) = PKN2 (human) (UniProt Q16513); experiment: radiometric filter-binding kinase assay
PIM1 (human) = PIM1 (human) (UniProt P11309); experiment: radiometric filter-binding kinase assay
[9] = system: SGK1 (human), O00141 [S422D]; experiment: radiometric filter-binding kinase assay
PTK6 (human) = PTK6 (human) (UniProt Q13882); experiment: radiometric filter-binding kinase assay
MKNK2 (human) = MKNK2 (human) (UniProt Q9HBH9); experiment: radiometric filter-binding kinase assay
[10] = system: AKT2 (human), P31751 [S474D]; experiment: radiometric filter-binding kinase assay

Chain of PIM1 (human) (P11309 whole entry, looked up): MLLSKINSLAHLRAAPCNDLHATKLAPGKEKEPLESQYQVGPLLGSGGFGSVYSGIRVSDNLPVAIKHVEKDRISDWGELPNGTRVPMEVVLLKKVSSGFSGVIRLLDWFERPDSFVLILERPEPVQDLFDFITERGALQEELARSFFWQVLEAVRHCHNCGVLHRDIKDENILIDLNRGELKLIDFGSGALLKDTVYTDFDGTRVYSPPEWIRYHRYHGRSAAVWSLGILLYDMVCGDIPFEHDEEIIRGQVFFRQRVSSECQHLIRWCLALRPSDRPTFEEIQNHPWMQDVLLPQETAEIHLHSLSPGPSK
Chain of EEF2K (human) (O00418 whole entry, looked up): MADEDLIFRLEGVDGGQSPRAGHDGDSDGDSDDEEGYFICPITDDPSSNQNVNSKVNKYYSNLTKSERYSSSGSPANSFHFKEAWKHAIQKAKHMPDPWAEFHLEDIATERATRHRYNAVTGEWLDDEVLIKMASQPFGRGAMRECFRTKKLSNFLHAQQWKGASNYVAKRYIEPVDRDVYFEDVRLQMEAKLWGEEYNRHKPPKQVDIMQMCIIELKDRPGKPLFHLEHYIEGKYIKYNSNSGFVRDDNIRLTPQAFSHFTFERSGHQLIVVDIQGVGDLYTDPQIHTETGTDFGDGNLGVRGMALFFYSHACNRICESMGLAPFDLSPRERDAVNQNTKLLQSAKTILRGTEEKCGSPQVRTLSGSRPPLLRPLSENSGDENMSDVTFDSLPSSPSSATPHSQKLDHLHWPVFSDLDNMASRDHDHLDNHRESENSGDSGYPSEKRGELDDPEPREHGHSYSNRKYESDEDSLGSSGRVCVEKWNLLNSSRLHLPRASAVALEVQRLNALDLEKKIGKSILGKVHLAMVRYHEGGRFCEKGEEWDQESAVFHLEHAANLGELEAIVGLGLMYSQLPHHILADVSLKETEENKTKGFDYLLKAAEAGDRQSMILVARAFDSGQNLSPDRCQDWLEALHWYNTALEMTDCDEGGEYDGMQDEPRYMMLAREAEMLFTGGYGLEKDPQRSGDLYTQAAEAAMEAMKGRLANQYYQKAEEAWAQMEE
Chain of PKN2 (human) (Q16513 whole entry, looked up): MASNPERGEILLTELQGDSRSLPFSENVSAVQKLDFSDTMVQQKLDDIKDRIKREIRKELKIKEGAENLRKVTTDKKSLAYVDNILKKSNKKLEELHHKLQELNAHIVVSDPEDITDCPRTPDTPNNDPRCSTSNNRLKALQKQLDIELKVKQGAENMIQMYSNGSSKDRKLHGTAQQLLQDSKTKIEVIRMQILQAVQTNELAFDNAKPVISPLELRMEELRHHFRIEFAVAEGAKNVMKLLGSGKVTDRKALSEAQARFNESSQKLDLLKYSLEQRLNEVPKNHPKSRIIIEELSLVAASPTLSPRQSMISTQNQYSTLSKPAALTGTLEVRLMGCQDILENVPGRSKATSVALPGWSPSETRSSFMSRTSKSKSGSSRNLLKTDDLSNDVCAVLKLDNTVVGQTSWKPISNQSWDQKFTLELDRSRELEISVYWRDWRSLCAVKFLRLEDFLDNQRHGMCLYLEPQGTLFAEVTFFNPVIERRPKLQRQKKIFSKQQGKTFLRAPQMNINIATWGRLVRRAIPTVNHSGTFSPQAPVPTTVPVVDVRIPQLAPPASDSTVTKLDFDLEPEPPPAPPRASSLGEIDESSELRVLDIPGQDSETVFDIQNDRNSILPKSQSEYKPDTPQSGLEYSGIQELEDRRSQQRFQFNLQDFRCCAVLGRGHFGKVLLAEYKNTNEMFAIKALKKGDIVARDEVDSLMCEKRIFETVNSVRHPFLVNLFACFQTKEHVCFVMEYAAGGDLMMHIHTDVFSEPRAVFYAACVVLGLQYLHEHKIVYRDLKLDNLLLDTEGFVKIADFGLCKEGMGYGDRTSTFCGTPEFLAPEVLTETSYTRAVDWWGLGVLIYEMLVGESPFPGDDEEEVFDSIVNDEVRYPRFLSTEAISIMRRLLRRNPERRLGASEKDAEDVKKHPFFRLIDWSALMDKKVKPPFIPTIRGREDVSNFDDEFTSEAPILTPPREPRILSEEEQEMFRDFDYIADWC
Chain of MAP2K1 (human) (Q02750 whole entry, looked up): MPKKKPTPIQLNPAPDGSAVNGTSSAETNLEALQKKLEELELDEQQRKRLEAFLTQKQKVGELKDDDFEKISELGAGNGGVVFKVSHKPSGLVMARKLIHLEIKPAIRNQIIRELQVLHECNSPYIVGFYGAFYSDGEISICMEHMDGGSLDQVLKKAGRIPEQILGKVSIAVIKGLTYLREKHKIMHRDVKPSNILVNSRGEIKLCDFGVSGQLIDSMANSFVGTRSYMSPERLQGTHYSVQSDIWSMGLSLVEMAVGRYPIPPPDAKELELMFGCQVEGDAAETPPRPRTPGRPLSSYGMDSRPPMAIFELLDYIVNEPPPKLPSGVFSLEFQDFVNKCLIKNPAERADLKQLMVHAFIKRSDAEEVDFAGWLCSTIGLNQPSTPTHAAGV
Chain of MAPKAPK2 (human) (P49137 whole entry, looked up): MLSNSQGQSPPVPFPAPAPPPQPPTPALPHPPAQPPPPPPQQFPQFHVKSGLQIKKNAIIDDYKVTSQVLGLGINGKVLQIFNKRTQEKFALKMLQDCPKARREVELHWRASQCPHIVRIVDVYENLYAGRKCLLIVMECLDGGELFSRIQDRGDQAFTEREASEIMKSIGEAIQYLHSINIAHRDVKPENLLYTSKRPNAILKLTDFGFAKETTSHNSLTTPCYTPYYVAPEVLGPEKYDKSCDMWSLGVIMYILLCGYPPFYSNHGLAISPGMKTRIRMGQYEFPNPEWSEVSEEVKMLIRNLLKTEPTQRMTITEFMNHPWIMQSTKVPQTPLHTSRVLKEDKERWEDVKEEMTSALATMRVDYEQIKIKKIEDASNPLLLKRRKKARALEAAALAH
Chain of MKNK2 (human) (Q9HBH9 whole entry, looked up): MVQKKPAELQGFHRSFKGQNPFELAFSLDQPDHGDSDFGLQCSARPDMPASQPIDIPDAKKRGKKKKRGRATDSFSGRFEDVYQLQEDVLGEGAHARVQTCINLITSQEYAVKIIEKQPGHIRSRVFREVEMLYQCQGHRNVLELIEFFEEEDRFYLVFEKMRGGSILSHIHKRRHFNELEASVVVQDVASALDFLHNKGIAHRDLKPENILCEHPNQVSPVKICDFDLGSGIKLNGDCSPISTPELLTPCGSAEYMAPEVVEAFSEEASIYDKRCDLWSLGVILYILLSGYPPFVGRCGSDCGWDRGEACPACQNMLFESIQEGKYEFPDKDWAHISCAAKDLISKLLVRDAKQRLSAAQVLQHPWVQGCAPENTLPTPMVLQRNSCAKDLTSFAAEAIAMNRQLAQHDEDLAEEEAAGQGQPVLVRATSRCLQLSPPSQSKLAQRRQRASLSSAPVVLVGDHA
Chain of SGK1 (human), O00141 [S422D] (O00141 whole entry S422D, looked up): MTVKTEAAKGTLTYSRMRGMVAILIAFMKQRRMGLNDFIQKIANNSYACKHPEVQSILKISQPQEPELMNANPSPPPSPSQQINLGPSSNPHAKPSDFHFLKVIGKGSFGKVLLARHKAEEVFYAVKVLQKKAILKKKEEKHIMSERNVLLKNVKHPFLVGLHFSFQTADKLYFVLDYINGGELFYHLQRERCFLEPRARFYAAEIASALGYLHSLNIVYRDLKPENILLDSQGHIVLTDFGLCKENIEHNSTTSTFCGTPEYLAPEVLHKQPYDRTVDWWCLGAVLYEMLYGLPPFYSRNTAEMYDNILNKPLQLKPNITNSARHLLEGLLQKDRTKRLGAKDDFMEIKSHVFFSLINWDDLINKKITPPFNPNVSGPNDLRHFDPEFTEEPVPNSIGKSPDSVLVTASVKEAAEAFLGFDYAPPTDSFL
Chain of TBK1 (human) (Q9UHD2 whole entry, looked up): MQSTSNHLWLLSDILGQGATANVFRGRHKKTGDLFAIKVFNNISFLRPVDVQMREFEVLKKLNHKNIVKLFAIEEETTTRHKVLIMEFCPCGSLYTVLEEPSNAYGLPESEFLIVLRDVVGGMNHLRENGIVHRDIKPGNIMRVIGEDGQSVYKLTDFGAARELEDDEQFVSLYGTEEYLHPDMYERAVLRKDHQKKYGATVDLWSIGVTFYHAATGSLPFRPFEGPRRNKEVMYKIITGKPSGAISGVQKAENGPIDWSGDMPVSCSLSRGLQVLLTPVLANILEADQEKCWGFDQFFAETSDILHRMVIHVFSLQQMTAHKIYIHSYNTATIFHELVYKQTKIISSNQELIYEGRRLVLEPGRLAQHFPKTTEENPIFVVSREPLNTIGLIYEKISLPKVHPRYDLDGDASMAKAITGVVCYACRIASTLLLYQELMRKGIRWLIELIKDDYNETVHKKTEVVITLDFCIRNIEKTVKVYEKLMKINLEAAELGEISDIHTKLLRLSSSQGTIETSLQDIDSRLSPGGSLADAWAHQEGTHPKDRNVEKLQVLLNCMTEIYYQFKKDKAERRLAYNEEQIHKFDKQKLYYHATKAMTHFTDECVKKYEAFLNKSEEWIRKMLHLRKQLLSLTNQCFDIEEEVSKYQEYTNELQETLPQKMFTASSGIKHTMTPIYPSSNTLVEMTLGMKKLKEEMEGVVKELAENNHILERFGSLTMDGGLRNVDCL
Chain of PTK6 (human) (Q13882 whole entry, looked up): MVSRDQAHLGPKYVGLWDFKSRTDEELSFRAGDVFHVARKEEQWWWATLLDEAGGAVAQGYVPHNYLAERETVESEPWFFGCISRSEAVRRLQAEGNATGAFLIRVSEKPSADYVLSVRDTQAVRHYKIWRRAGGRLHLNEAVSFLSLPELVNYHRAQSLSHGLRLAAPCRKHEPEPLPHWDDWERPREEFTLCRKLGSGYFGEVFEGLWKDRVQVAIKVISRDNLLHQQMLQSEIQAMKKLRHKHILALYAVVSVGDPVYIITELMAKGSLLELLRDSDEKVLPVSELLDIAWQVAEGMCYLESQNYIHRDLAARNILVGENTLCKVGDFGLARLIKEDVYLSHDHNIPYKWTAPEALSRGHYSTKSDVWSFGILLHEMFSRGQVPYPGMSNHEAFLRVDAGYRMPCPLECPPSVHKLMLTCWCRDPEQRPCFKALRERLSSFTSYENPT

CCN1CCN(Cc2ccc(NC(=O)c3ccc(C)c(Oc4ccnc5[nH]ccc45)c3)cc2C(F)(F)F)CC1
kinase still bound, per cent of control (NLK (human)): 14%
kinase still bound, per cent of control (STK10 (human)): 0%
kinase still bound, per cent of control [1]: 11%
kinase still bound, per cent of control (FLT3 (human)): 0.15%
kinase still bound, per cent of control (MLTK (human)): 0.35%
kinase still bound, per cent of control [2]: 16%
kinase still bound, per cent of control (CAMKK2 (human) [3]): 28%
kinase still bound, per cent of control (PTK2B (human)): 2.1%
kinase still bound, per cent of control (LTK (human)): 1.2%
kinase still bound, per cent of control [4]: 0%
kinase still bound, per cent of control (KIT (human)): 0%
kinase still bound, per cent of control (MAPK11 (human)): 0%
kinase still bound, per cent of control (MAP3K3 (human)): 12%
kinase still bound, per cent of control (MAP4K4 (human)): 0%
kinase still bound, per cent of control (STK38L (human)): 6.8%
kinase still bound, per cent of control (FGFR1 (human)): 1.7%
kinase still bound, per cent of control [5]: 0.8%
kinase still bound, per cent of control (FGFR2 (human)): 1.4%
kinase still bound, per cent of control (STK36 (human)): 0.2%
kinase still bound, per cent of control [6]: 2.4%
kinase still bound, per cent of control [7]: 2.7%
kinase still bound, per cent of control (SLK (human)): 2%
residual activity (NEK2 (human); compound 0.1 µM): 112%
residual activity (NEK2 (human); compound 1.0 µM): 107%
residual activity (NEK2 (human); compound 10.0 µM): 93.4%
residual activity (TBK1 (human); compound 0.1 µM): 113%
residual activity (TBK1 (human); compound 1.0 µM): 100%
residual activity (TBK1 (human); compound 10.0 µM): 96%
residual activity (DYRK1A (human); compound 0.1 µM): 107%
residual activity (DYRK1A (human); compound 1.0 µM): 97.8%
residual activity (DYRK1A (human); compound 10.0 µM): 84.9%
residual activity (CAMKK2 (human) [8]; compound 0.1 µM): 98.3%
residual activity (CAMKK2 (human) [8]; compound 1.0 µM): 70.7%
residual activity (CAMKK2 (human) [8]; compound 10.0 µM): 20.7%
residual activity (EEF2K (human); compound 0.1 µM): 110%
residual activity (EEF2K (human); compound 1.0 µM): 102%
residual activity (EEF2K (human); compound 10.0 µM): 100%
residual activity (MAP2K1 (human); compound 0.1 µM): 106%
residual activity (MAP2K1 (human); compound 1.0 µM): 108%
residual activity (MAP2K1 (human); compound 10.0 µM): 93.2%
residual activity (MAPKAPK2 (human); compound 0.1 µM): 110%
residual activity (MAPKAPK2 (human); compound 1.0 µM): 122%
residual activity (MAPKAPK2 (human); compound 10.0 µM): 113%
residual activity (PKN2 (human); compound 0.1 µM): 102%
residual activity (PKN2 (human); compound 1.0 µM): 93.3%
residual activity (PKN2 (human); compound 10.0 µM): 78.6%
residual activity (PIM1 (human); compound 0.1 µM): 120%
residual activity (PIM1 (human); compound 1.0 µM): 117%
residual activity (PIM1 (human); compound 10.0 µM): 87.4%
residual activity ([9]; compound 0.1 µM): 101%
residual activity ([9]; compound 1.0 µM): 72.8%
residual activity ([9]; compound 10.0 µM): 52.1%
residual activity (PTK6 (human); compound 0.1 µM): 101%
residual activity (PTK6 (human); compound 1.0 µM): 43.1%
residual activity (PTK6 (human); compound 10.0 µM): 6.76%
residual activity (MKNK2 (human); compound 0.1 µM): 109%
residual activity (MKNK2 (human); compound 1.0 µM): 112%
residual activity (MKNK2 (human); compound 10.0 µM): 82.8%
residual activity ([10]; compound 0.1 µM): 105%
residual activity ([10]; compound 1.0 µM): 114%
residual activity ([10]; compound 10.0 µM): 49.3%
